Laboratory results reported in patent US20180110757A1, “METHODS OF TREATING PRURITIS AND PAIN” (The Regents of the University of California, priority 2016, published 2018).
One block for each compound: values may come before it.

Experiments:
[1] = system: wild-type mice; assay: Mechanical pain sensitivity (von Frey, tactile stimuli) in healthy wild-type mice; type: in vivo
Source text: Likewise, in S1pr3^−/− mice, radiant heat withdrawal latencies were normal.
Pharmacological manipulation of S1PR3 or reduction of S1P levels lessens mechanical pain sensation in wild-type mice without affecting innocuous touch.
Blockade of S1PR1 with the selective antagonist W146 has no effect on mechanosensitivity. Tonic levels of S1P in the skin are responsible for S1PR3-mediated mechanical pain sensation.

[2] = system: wild-type mice; assay: Complete Freund's Adjuvant (CFA) model of chronic inflammation; type: in vivo
Source text: S1PR3 knockout mice treated with CFA fail to develop thermal hypersensitivity and display normal mechanical sensitivity due to their baseline defect in mechanical pain sensation. They also display lessened paw swelling, possibly due to decreased neurogenic inflammation. […] Loss of S1P production with acute SKI II injection into the CFA-treated paw also reverses CFA thermal hypersensitivity.

[3] = biological target: T1, S1PR3 (Mus musculus, UniProt Q9Z0U9); assay: Ratiometric calcium imaging in cultured DRG neurons; type: cell-based, mice; conditions: for calcium responses in cultured DRG neurons: S1P 100 nM, CYM 100 μM
T1 construct: attenuates S1P-evoked calcium responses in wild-type DRG sensory neurons; endogenous in cells; host or cells: cultured mouse dorsal root ganglion (DRG) neurons, wild-type
Method: FIG. 1A-1G. A. Graphical model illustrating the role of S1PR3-evoked itch in somatosensory neurons of the dorsal root ganglion (DRG). […] C. […] D. Venn diagram displaying overlap of S1P responsive neurons from ratiometric calcium imaging with known pruritogens and algogens in cultured DRG neurons. Pruritogens: HIS=histamine, CQ=chloroquine. Algogens: CAP=capsaicin, AITC=allyl-isothiocyanate. Data were collected from n>4,000 neurons. E. Scratching behavioral data for mice injected with 200 nM S1P or 0.1% methanol-PBS vehicle intradermally into the rostral back. WT=wild-type, A1 −/−=Trpa1-deficient knockout mice. Scratching behaviors were recorded 30 minutes post injection. […] G. S1pr3 transcript levels were quantified using qRT-PCR from skin of mice treated with vitamin D or ethanol control for 7 days to induce an atopic dermatitis-like condition. Data were normalized to Gapdh housekeeping gene. For all data, one way ANOVA was performed with a Tukey-Kramer post hoc statistical test. Tukey-Kramer values are reported and only p<0.05 were considered significant, ***=p<0.001. n.s.=not significant.

[4] = system: KCNQ2/3 potassium channels (M channels); assay: Excitability of mechanical nociceptor DRG neurons in vitro; type: cell-based; conditions: via S1PR3, through closure of KCNQ2/3 potassium channels
Source text: In situ RNA hybridization studies and protein localization studies indicate that S1pr3 is expressed in thermal nociceptors and mechanical nociceptors, as well as nociceptive free nerve endings in skin.

[5] = system: mice; assay: Scratching behavior after intradermal injection into the rostral back; type: in vivo
[6] = wild-type mice, intradermal administration
[7] = S1PR3-deficient (S1PR3 −/−) mice
[8] = wildtype mice (WT), compared to physiological saline control
[9] = wild-type mice, delivered to the hindpaw after induction of CFA pain

T1 sequence (Q9Z0U9 whole entry): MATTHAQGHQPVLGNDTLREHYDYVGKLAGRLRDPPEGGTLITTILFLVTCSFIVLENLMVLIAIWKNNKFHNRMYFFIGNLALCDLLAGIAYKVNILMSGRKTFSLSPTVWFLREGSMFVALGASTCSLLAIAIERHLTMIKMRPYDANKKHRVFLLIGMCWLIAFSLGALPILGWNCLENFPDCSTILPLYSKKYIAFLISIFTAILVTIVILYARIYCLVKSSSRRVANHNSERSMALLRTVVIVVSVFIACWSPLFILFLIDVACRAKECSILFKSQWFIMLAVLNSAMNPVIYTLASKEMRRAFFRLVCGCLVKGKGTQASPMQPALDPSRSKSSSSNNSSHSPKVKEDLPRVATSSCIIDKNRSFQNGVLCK

SMILES: CCCCCCc1cccc(NC(=O)[C@H](N)CCP(=O)(O)O)c1 [W146]
mechanosensitivity [1, 6]: no effect

SMILES: Oc1ccc(Nc2nc(-c3ccc(Cl)cc3)cs2)cc1 [SKI II, 2-(p-hydroxyanilino)-4-(p-chlorophenyl)thiazole]
mechanical pain sensitivity after block of local production of S1P ([1]; injection of 50 μM): mechanical pain sensitivity was dependent on local S1P in the skin
CFA thermal hypersensitivity ([2]; acute injection into the CFA-treated paw): reverses

Second part, led by results:

calcium responses in cultured DRG neurons [3, 7]: lack calcium responses
calcium responses in cultured DRG neurons [3, 8]: robust responses
SMILES: O=C(c1cc(C2CC2)on1)N(C1CCCCC1)C1CCCCC1 [CYM 5541]

calcium responses in cultured DRG neurons [3, 7]: lack calcium responses
calcium responses in cultured DRG neurons [3, 8]: robust responses
SMILES: CCCCCCCCCCCCC/C=C/[C@@H](O)[C@@H](N)COP(=O)(O)O [S1P, Sphingosine-1-phosphate]
excitability of mechanical nociceptor DRG neurons [4]: increases the excitability
scratching behavior vs. vehicle ([5]; S1PR3-deficient mice (S1PR3 −/−), 200 nM intradermally, 30 minutes post injection): no difference
scratching behavior ([5]; mice (FIG. 1E), S1PR3-dependent opening of TRPA1): leads to scratching behavior in mice

effect on S1P-evoked calcium responses ([3]; wild-type DRG sensory neurons): attenuates
effect on the effects of the allosteric agonist CYM (calcium imaging) ([3]; wild-type DRG sensory neurons): does not block
SMILES: CC(C)(C)C(=O)C(=Nc1ccc(Cl)cc1)NNc1ccc(Cl)cc1 [TY 52156, N-(4-Chlorophenyl)-3,3-dimethyl-2-oxobutanimidic 2-(4-chlorophenyl) hydrazide]
mechanosensitivity [1, 6]: promotes mechanical hyposensitivity
responsiveness to noxious tactile stimuli [1, 6]: decreases responsiveness
mechanical thresholds [2, 9]: to pre-CFA, baseline levels
thermal thresholds [2, 9]: to pre-CFA, baseline levels
